Measured values reported in patent US6737383B1, “Herbicidal oxadiazolidines” (priority 1999, dated 2004).

Experiments:
wild oat = test: Test B pre/postemergence wild oat; type: in vivo, Avena fatua; settings: for Plant response rating, Wild oats: scale of 0 to 10 where 0 is no effect and 10 is complete control
Summary of the method: (§1)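 Response is a visual 0-to-10 score relative to untreated plants, where 0 means no effect and 10 means complete control, taken twelve to sixteen days after application. Treatments went onto soil at planting and onto foliage of 1- to 4-leaf plants, using a surfactant-containing non-phytotoxic solvent.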

corn = test: Test B pre/postemergence corn; type: in vivo, Zea mays
Summary of the method: as §1

surinam grass = test: Test B pre/postemergence surinam grass; type: in vivo, Brachiaria decumbens
Summary of the method: as §1

crabgrass = test: Test B pre/postemergence crabgrass; type: in vivo, Digitaria sanguinalis
Summary of the method: as §1

smallflower flatsedge = test: Test B flood test smallflower flatsedge; type: in vivo, Cyperus difformis
Summary of the method: (§2)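 Flood test on plants grown to the 2-leaf stage; treated plants kept in greenhouse twelve to sixteen days, then visually rated against controls on a 0 (no effect) to 10 (complete control) scale.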

purple nutsedge = test: Test B pre/postemergence purple nutsedge; type: in vivo, Cyperus rotundus; settings: for Plant response rating, Nutsedge: scale of 0 to 10 where 0 is no effect and 10 is complete control
Summary of the method: as §1

blackgrass = test: Test B pre/postemergence blackgrass; type: in vivo, Alopecurus myosuroides
Summary of the method: as §1

wheat = test: Test B pre/postemergence wheat; type: in vivo, Triticum aestivum; settings: for Plant response rating, Wheat: scale of 0 to 10 where 0 is no effect and 10 is complete control
Summary of the method: as §1

velvetleaf = test: Test B pre/postemergence velvetleaf; type: in vivo, Abutilon theophrasti; settings: for Plant response rating, Velvetleaf: scale of 0 to 10 where 0 is no effect and 10 is complete control
Summary of the method: as §1

rice = test: Test B flood test rice; type: in vivo, Oryza sativa
Summary of the method: as §2

bamyardgrass = test: Test B flood test barnyardgrass; type: in vivo, Echinochloa crus-galli
Summary of the method: as §2

duck salad = test: Test B flood test duck salad; type: in vivo, Heteranthera limosa
Summary of the method: as §2

rape = test: Test B pre/postemergence rape; type: in vivo, Brassica napus; settings: for Plant response rating, Rape: scale of 0 to 10 where 0 is no effect and 10 is complete control
Summary of the method: as §1

bedstraw = test: Test B pre/postemergence bedstraw; type: in vivo, Galium aparine
Summary of the method: as §1

giant foxtail = test: Test B pre/postemergence giant foxtail; type: in vivo, Setaria faberii
Summary of the method: as §1

sugar beet = test: Test B pre/postemergence sugar beet; type: in vivo, Beta vulgaris; settings: for Plant response rating, Sugarbeets: scale of 0 to 10 where 0 is no effect and 10 is complete control
Summary of the method: as §1

[1] = Postemergence, Rate 250 g/ha, scale 0 to 10
[2] = Preemergence, Rate 250 g/ha, scale 0 to 10, 0 is no effect, 10 is complete control
[3] = Preemergence, Rate 500 g/ha, scale 0 to 10, 0 is no effect, 10 is complete control
[4] = Rate 62 g/ha, Postemergence, scale 0 to 10 (0 no effect, 10 complete control)
[5] = Rate 125 g/ha, Postemergence, scale 0 to 10, 0 is no effect, 10 is complete control
[6] = Postemergence, Rate 500 g/ha, scale of 0 to 10 where 0 is no effect and 10 is complete control
[7] = Preemergence, Rate 62 g/ha, scale of 0 to 10 where 0 is no effect and 10 is complete control
[8] = Preemergence, Rate 125 g/ha, scale of 0 to 10 where 0 is no effect and 10 is complete control
[9] = Rate 62 g/ha, flood test species, Pre-emergence, visual evaluation after twelve to sixteen days
[10] = Rate 125 g/ha, under heading Pre-emergence, flood test species, visual evaluation after twelve to sixteen days
[11] = Rate 250 g/ha, Pre-emergence (flood test species), scale 0 to 10, 0 is no effect, 10 is complete control
[12] = Rate 500 g/ha, Pre-emergence, flood test species, scale 0 to 10 (0 no effect, 10 complete control)

CC(C)N(C(=O)n1oc(=O)n(CO)c1=O)c1ccc(Cl)cc1 [Compound 457]
8: Giant foxtail plant response rating (giant foxtail; [3])
0: Wild oats plant response rating (wild oat; [1]) | Plant response rating, Wild oats (wild oat; Preemergence, Rate 62 g/ha) | Plant response rating, Wild oats (wild oat; Preemergence, Rate 125 g/ha) | Wild oats plant response rating (wild oat; [2]) | Wild oats plant response rating (wild oat; [3]) | Wild oats plant response rating (wild oat; [4]) | Wild oats plant response rating (wild oat; [5]) | Corn plant response rating (corn; [1]) | Corn plant response rating (corn; [6]) | Plant response rating, Corn (corn; [7]) | Plant response rating, Corn (corn; [8]) | Corn plant response rating (corn; [2]) | Corn plant response rating (corn; [3]) | Corn plant response rating (corn; [4]) | Corn plant response rating (corn; [5]) | B. signalgrass plant response rating (surinam grass; Postemergence, Rate 250 g/ha, scale 0 to 10, 0 no effect, 10 complete control) | B. signalgrass plant response rating (surinam grass; [6]) | Plant response rating, B. signalgrass (surinam grass; [7]) | Plant response rating, B. signalgrass (surinam grass; [8]) | B. signalgrass plant response rating (surinam grass; [2]) | B. signalgrass plant response rating (surinam grass; [3]) | B. signalgrass plant response rating (surinam grass; [4]) | B. signalgrass plant response rating (surinam grass; [5]) | Crabgrass plant response rating (crabgrass; [1]) | Crabgrass plant response rating (crabgrass; [6]) | Plant response rating, Crabgrass (crabgrass; [7]) | Plant response rating, Crabgrass (crabgrass; [8]) | Crabgrass plant response rating (crabgrass; [2]) | Crabgrass plant response rating (crabgrass; [3]) | Crabgrass plant response rating (crabgrass; [4]) | Crabgrass plant response rating (crabgrass; [5]) | Plant response rating, S. Flatsedge (0 to 10 scale, 0 is no effect, 10 is complete control) (smallflower flatsedge; [9]) | S. Flatsedge plant response rating (0 to 10 scale, 0 is no effect, 10 is complete control) (smallflower flatsedge; [10]) | S. Flatsedge plant response rating (smallflower flatsedge; [11]) | S. Flatsedge plant response rating (smallflower flatsedge; [12]) | Nutsedge plant response rating (purple nutsedge; [1]) | Plant response rating, Nutsedge (purple nutsedge; Preemergence, Rate 62 g/ha) | Plant response rating, Nutsedge (purple nutsedge; Preemergence, Rate 125 g/ha) | Nutsedge plant response rating (purple nutsedge; [2]) | Nutsedge plant response rating (purple nutsedge; [3]) | Nutsedge plant response rating (purple nutsedge; [4]) | Nutsedge plant response rating (purple nutsedge; [5]) | Blackgrass plant response rating (blackgrass; [1]) | Blackgrass plant response rating (blackgrass; [6]) | Plant response rating, Blackgrass (blackgrass; [7]) | Plant response rating, Blackgrass (blackgrass; [8]) | Blackgrass plant response rating (blackgrass; [2]) | Blackgrass plant response rating (blackgrass; [3]) | Blackgrass plant response rating (blackgrass; [4]) | Blackgrass plant response rating (blackgrass; [5]) | Wheat plant response rating (wheat; [1]) | Plant response rating, Wheat (wheat; Preemergence, Rate 62 g/ha) | Plant response rating, Wheat (wheat; Preemergence, Rate 125 g/ha) | Wheat plant response rating (wheat; [2]) | Wheat plant response rating (wheat; [3]) | Wheat plant response rating (wheat; [4]) | Wheat plant response rating (wheat; [5]) | Velvetleaf plant response rating (velvetleaf; [1]) | Plant response rating, Velvetleaf (velvetleaf; Preemergence, Rate 62 g/ha) | Plant response rating, Velvetleaf (velvetleaf; Preemergence, Rate 125 g/ha) | Velvetleaf plant response rating (velvetleaf; [2]) | Velvetleaf plant response rating (velvetleaf; [3]) | Velvetleaf plant response rating (velvetleaf; [4]) | Velvetleaf plant response rating (velvetleaf; [5]) | Plant response rating, Rice (0 to 10 scale, 0 is no effect, 10 is complete control) (rice; [9]) | Rice plant response rating (0 to 10 scale, 0 is no effect, 10 is complete control) (rice; [10]) | Rice plant response rating (rice; [11]) | Rice plant response rating (rice; [12]) | Plant response rating, Barnyardgrass (0 to 10 scale, 0 is no effect, 10 is complete control) (bamyardgrass; [9]) | Barnyardgrass plant response rating (0 to 10 scale, 0 is no effect, 10 is complete control) (bamyardgrass; [10]) | Barnyardgrass plant response rating (bamyardgrass; [11]) | Barnyardgrass plant response rating (bamyardgrass; [12]) | Plant response rating, Ducksalad (0 to 10 scale, 0 is no effect, 10 is complete control) (duck salad; [9]) | Ducksalad plant response rating (0 to 10 scale, 0 is no effect, 10 is complete control) (duck salad; [10]) | Ducksalad plant response rating (duck salad; [11]) | Ducksalad plant response rating (duck salad; [12]) | Rape plant response rating (rape; [1]) | Plant response rating, Rape (rape; Preemergence, Rate 62 g/ha) | Plant response rating, Rape (rape; Preemergence, Rate 125 g/ha) | Rape plant response rating (rape; [2]) | Rape plant response rating (rape; [3]) | Rape plant response rating (rape; [4]) | Rape plant response rating (rape; [5]) | Bedstraw plant response rating (bedstraw; [2]) | Bedstraw plant response rating (bedstraw; [3]) | Bedstraw plant response rating (bedstraw; [4]) | Bedstraw plant response rating (bedstraw; [5]) | Giant foxtail plant response rating (giant foxtail; [1]) | Giant foxtail plant response rating (giant foxtail; [6]) | Plant response rating, Giant foxtail (giant foxtail; [7]) | Plant response rating, Giant foxtail (giant foxtail; [8]) | Giant foxtail plant response rating (giant foxtail; [2]) | Giant foxtail plant response rating (giant foxtail; [4]) | Giant foxtail plant response rating (giant foxtail; [5]) | Sugarbeets plant response rating (sugar beet; [1]) | Plant response rating, Sugarbeets (sugar beet; Preemergence, Rate 62 g/ha) | Plant response rating, Sugarbeets (sugar beet; Preemergence, Rate 125 g/ha) | Sugarbeets plant response rating (sugar beet; [2]) | Sugarbeets plant response rating (sugar beet; [3]) | Sugarbeets plant response rating (sugar beet; [4]) | Sugarbeets plant response rating (sugar beet; [5])
